Data from PMC11880385 (Nature Communications, 2025).
≈ marks a conversion by molar mass, not a printed value.

Columns and labels:
[1] = molecular target: T1, C. albicans Yck2 kinase domain (Candida albicans, UniProt A0A1D8PKB4); test: biochemical; format: biochemical
T1 sequence (A0A1D8PKB4 37-345): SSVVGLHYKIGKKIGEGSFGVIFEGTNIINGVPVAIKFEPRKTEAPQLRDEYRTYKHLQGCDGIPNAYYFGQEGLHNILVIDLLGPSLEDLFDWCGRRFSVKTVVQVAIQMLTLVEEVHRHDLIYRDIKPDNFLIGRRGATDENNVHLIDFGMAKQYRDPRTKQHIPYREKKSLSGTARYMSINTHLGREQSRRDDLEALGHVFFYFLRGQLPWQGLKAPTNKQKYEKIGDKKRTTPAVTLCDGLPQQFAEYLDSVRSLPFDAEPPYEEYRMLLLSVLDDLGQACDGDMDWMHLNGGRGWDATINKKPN

[2] = Mouse liver microsomal stability assay; conditions: mouse liver microsomes; for remaining at 0.5 h, 1 µM: mouse
C. albicans (CaSS1) = test: C. albicans growth inhibition, two-fold dose-response assay; conditions: for MIC80: Candida albicans, 48 h, read-out: C. albicans MIC80; for concentration at which bioactivity was retained / whole-cell antifungal activity against C. albicans: 5% CO2
[3] = system: C. albicans Yck2 kinase domain; test: biochemical; format: biochemical, Candida albicans; conditions: Ratio of HsCK1α IC50 / CaYck2 IC50
human CK1α = human CK1α (Homo sapiens, UniProt P48729); test: HsCK1α kinase inhibition assay; format: biochemical
[4] = system: C. albicans (FKS1^T1922C/FKS1^T1922C Eno1-GFP); test: HepG2 / C. albicans co-culture: fungal burden by GFP fluorescence; conditions: 48 h co-culture with HepG2
[5] = system: C. albicans (TEF1p-GFP) in J774A.1 cells; test: Visualization of C. albicans filamentation in macrophages; conditions: 4 h incubation; 0.94, 7.5 or 30 µM
[6] = system: echinocandin-resistant C. albicans strain (DPL15; FKS1^T1922C/FKS1^T1922C); test: Caspofungin potentiation dose-response assay in echinocandin-resistant strain; conditions: sub-inhibitory caspofungin (3 µg/mL); YPD, 30 °C, 48 h
[7] = Tolerability on repeated oral dosing in uninfected mice; conditions: 25 mg/kg once daily over 3 days
[8] = Plasma, kidney and brain exposure in mice; conditions: 50 mg/kg oral
[9] = system: J774A.1 cells infected with C. albicans (SC5314); test: Macrophage killing assay; conditions: for macrophage viability in co-culture: 30 µM; for IC50: Mus musculus, J774.A1, 24 h, read-out: IC50 of rescuing macrophage viability
[10] = Plasma pharmacokinetic profiling in mice; conditions: female, CD1, mouse, in vivo, po, 25 mg/kg, maximal plasma concentration (Cmax), 25 mg/kg p.o.
C. auris = conditions: cited from earlier work
Cryptococcus neoformans = conditions: cited from earlier work
[11] = system: Nakaseomyces glabratus (formerly referred to as Candida glabrata); conditions: cited from earlier work
Aspergillus fumigatus = conditions: cited from earlier work
[12] = system: C. albicans (TEF1p-GFP) in co-culture with J774A.1 cells; test: C. albicans growth in co-culture with macrophages; conditions: 16 h post-infection

human CK1α, sequence (P48729 whole entry): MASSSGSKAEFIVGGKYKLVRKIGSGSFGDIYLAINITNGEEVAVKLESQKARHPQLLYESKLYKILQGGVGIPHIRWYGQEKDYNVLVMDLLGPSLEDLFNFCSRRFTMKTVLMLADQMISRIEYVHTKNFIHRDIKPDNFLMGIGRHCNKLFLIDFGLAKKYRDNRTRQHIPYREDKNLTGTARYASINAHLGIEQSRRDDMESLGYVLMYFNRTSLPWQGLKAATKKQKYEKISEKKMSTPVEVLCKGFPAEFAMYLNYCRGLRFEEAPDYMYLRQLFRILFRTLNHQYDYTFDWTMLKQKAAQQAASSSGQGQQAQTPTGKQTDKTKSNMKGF

Fc1ccc(-c2nc3cc(C4CC4)ccn3c2-c2ccncc2)cc1 [Compound 1h]
IC50 [1]: 180 nM
remaining at 0.5 h, 1 µM [2]: 0%
MIC80 (C. albicans (CaSS1)): 50 to 100 µM (≈ 16.5 to 32.9 µg/mL)
concentration at which bioactivity was retained (C. albicans (CaSS1); RPMI, 37 °C): 50 µM

Fc1ccc(-c2nn3cccc(F)c3c2-c2ccncc2)cc1 [Compound 2m]
Fungal selectivity (fold) [3]: 27 fold
MIC80 (C. albicans (CaSS1)): 25 µM (≈ 7.68 µg/mL)

CCCc1ccn2c(-c3ccncc3)c(-c3ccc(F)cc3)nc2c1 [Compound 1i]
remaining at 0.5 h, 1 µM [2]: 0%
MIC80 (C. albicans (CaSS1)): > 100 µM

COc1cccn2nc(-c3ccc(F)cc3)c(-c3ccncc3)c12 [Compound 2n]
Fungal selectivity (fold) [3]: 41 fold
IC50 [1]: 120 nM
remaining at 0.5 h, 1 µM [2]: 1%
IC50 (human CK1α): 4900 nM
MIC80 (C. albicans (CaSS1)): 25 µM (≈ 7.98 µg/mL)

N#Cc1ccn2c(-c3ccncc3)c(-c3ccc(F)cc3)nc2c1 [Compound 1e]
concentration clearing the majority of co-cultured C. albicans [4]: 6.25 µM
remaining at 0.5 h, 1 µM [2]: 80%
filamentation of C. albicans [5]: inhibited filamentation
reduction in MIC80 upon addition of caspofungin [6]: ≥ 32 fold
changes in animal weight or behavior [7]: no changes in animal weight or behavior were observed
brain penetration [8]: accumulated in brain tissue at levels higher than the systemic circulation
macrophage viability in co-culture [9]: restoring full viability
IC50 [9]: 6680 nM
Cmax [10]: ~36 µM
MIC80 (C. albicans (CaSS1)): 50 µM (≈ 15.7 µg/mL)
whole-cell antifungal activity against C. albicans (C. albicans (CaSS1); RPMI, 37 °C): robust anti-C. albicans bioactivity

Fc1ccc(-c2nn3ccc(C(F)(F)F)cc3c2-c2ccncc2)cc1 [Compound 2h]
IC50 [1]: > 1000 nM
CaYck2 IC50 ([1]; two-fold dose-response up to 1 µM, ATP 20 μM (Km)): above the maximum concentration tested
IC50 (human CK1α): > 15000 nM
whole-cell antifungal activity against C. albicans (C. albicans (CaSS1); RPMI, 37 °C): little to no whole-cell antifungal activity

Oc1ccn2nc(-c3ccc(F)cc3)c(-c3ccncc3)c2c1 [Compound 2k]
MIC80 (C. albicans (CaSS1)): > 100 µM
whole-cell antifungal activity against C. albicans (C. albicans (CaSS1); RPMI, 37 °C): no measurable whole-cell activity

Cc1ccc2c(-c3ccncc3)c(-c3ccc(F)cc3)nn2c1 [GW, GW461484A, reference compound]
metabolic stability category ([2]; 30 minutes, 1 μM): unstable (compound concentration remaining in the microsomal suspension after incubation for 30 minutes was ≤ 50% of the starting concentration (1 μM))
remaining at 0.5 h, 1 µM [2]: < 1%
antifungal activity (C. auris): possesses antifungal activity
filamentation of C. albicans [5]: inhibited filamentation
reduction in MIC80 upon addition of caspofungin [6]: ≥ 32 fold
antifungal activity (Cryptococcus neoformans): possesses antifungal activity
single-agent antifungal activity in vitro [11]: no single-agent antifungal activity was observed
single-agent antifungal activity in vitro (Aspergillus fumigatus): no single-agent antifungal activity was observed
reduction of C. albicans growth in co-culture [12]: most effective
macrophage viability in co-culture [9]: restoring full viability
IC50 [9]: 2050 nM
MIC80 (C. albicans (CaSS1)): 12.5 µM (≈ 3.79 µg/mL)

N#Cc1ccc2c(-c3ccncc3)c(-c3ccc(F)cc3)nn2c1 [Compound 2a]
filamentation of C. albicans [5]: inhibited filamentation
reduction in MIC80 upon addition of caspofungin [6]: ≥ 32 fold
changes in animal weight or behavior [7]: no changes in animal weight or behavior were observed
brain penetration [8]: accumulated in brain tissue at levels higher than the systemic circulation
reduction of C. albicans growth in co-culture [12]: most effective
macrophage viability in co-culture [9]: restoring full viability
IC50 [9]: 2170 nM
Cmax [10]: ~15 µM
MIC80 (C. albicans (CaSS1)): 12.5 µM (≈ 3.93 µg/mL)
whole-cell antifungal activity against C. albicans (C. albicans (CaSS1); RPMI, 37 °C): robust anti-C. albicans bioactivity
C. albicans MIC80 (C. albicans (CaSS1); wild-type C. albicans, RPMI, 37 °C, 5% CO2, 48 h): 12.5 µM

COc1ccc2c(-c3ccncc3)c(-c3ccc(F)cc3)nn2c1 [Compound 2d]
MIC80 (C. albicans (CaSS1)): 12.5 µM (≈ 3.99 µg/mL)
whole-cell antifungal activity against C. albicans (C. albicans (CaSS1); RPMI, 37 °C): robust anti-C. albicans bioactivity

CCc1ccn2c(-c3ccncc3)c(-c3ccc(F)cc3)nc2c1 [Compound 1d]
Fungal selectivity (fold) [3]: 3.5 fold
IC50 [1]: 490 nM
remaining at 0.5 h, 1 µM [2]: 0%
IC50 (human CK1α): 1700 nM
MIC80 (C. albicans (CaSS1)): 50 µM (≈ 15.9 µg/mL)
concentration at which bioactivity was retained (C. albicans (CaSS1); RPMI, 37 °C): 50 µM
